This passage reports IC50 results from patent publication US12371454B2, “Cyclic peptide compound having Kras inhibitory action” (priority 2019, dated 2025).

Experiment [1] has as its target T1, Kras and SOS1 (biotin-tagged human Kras loaded with GDP, His-tagged human SOS1) (Homo sapiens, UniProt P01116, G12D).
T1 construct: made in house; host or cells: E. coli (stated for Kras only)
Briefly: Protein-protein interaction inhibition between Kras and SOS1 (KrasGl2D-SOS PPI) using AlphaScreen. The class given is binding. As to conditions: AlphaScreen; biotin-tagged human Kras loaded with GDP, His-tagged human SOS1; read-out: KRAS G12D-SOS PPI IC50. In short, it runs like this:
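Energy transfer from nickel-chelate donor beads bound to His-SOS1 to streptavidin acceptor beads bound to biotin-Kras, expressed in E. coli and loaded with GDP after purification, was monitored. Donors were excited at 680 nm; singlet oxygen reaching acceptors gave emission read at 520-620 nm.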

Experiment [2] deals with Human pancreatic cancer cell line AsPC-1. Briefly: Measurement of AsPC-1 cell growth inhibition (AsPC-1 CGI). It counts as cell-based. Particulars: 96 h. The essentials:
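AsPC-1 cells in 15% FBS RPMI-1640 were exposed to test compound for 96 hours at 37° C, with CellTiter-Glo as endpoint.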

pIC50: −log10 of the molar value. Positions of bridges follow the written chain, without caps; N, C: chain ends. Non-standard residues stand in square brackets, D forms with d. Residues, ends and D or L forms follow the SMILES beside them. *: point of attachment. hPhe(3-Cl-4-CF3) = N[C@@H](CCc1ccc(C(F)(F)F)c(Cl)c1)C(=O)O; NMePhe(4-CF3) = CN[C@@H](Cc1ccc(C(F)(F)F)cc1)C(=O)O; hPhe(4-CF3) = N[C@@H](CCc1ccc(C(F)(F)F)cc1)C(=O)O; 3Oxa8azabicyclo(3.2.1)octane = C1CC2COCC1N2*; hPhe(4-Cl) = N[C@@H](CCc1ccc(Cl)cc1)C(=O)O; NMeCha = CN[C@@H](CC1CCCCC1)C(=O)O; NMeChg = CN[C@H](C(=O)O)C1CCCCC1; NMeI = CC[C@H](C)[C@H](NC)C(=O)O; NMeD = CN[C@@H](CC(=O)O)C(=O)O; NMeL = CN[C@@H](CC(C)C)C(=O)O; NMeNva = CCC[C@H](NC)C(=O)O; NMeV = CN[C@H](C(=O)O)C(C)C; NMeS = CN[C@@H](CO)C(=O)O; Morpholide = C1CN(*)CCO1; Pyrrolidide = C1CCN(*)C1; Ac5c = NC1(C(=O)O)CCCC1; Ac4c = NC1(C(=O)O)CCC1; Sar = CNCC(=O)O; Propyl = CCC*

T1 sequence (P01116 1-188 isoform P01116-2 G12D): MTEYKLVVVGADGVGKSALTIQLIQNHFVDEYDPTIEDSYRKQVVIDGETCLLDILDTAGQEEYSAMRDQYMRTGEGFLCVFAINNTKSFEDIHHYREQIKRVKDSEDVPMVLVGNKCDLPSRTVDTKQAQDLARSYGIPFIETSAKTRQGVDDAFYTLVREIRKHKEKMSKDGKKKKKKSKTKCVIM

As to `CCC[C@H]1C(=O)N[C@@H]([C@@H](C)CC)C(=O)N(C)CC(=O)N(C)CC(=O)N(C)[C@@H](CC2CCCCC2)C(=O)N(C)CC(=O)N[C@@H](CCc2ccc(C(F)(F)F)c(Cl)c2)C(=O)N2CCC[C@H]2C(=O)NC2(CCCC2)C(=O)N(C)[C@@H](C2CCCCC2)C(=O)N(C)[C@H](C(=O)N2C3CCC2COC3)CC(=O)N1C` [Compound 1933] ([NMeNva]I[Sar][Sar][NMeCha][Sar][hPhe(3-Cl-4-CF3)]P[Ac5c][NMeChg][NMeD]-{3Oxa8azabicyclo(3.2.1)octane}; lactam N-11), the pIC50 in experiment [1] was 9.23; in experiment [2], 7.00 to 7.30.

For `CC[C@H](C)[C@@H]1NC(=O)[C@H](CC(C)C)N(C)C(=O)C[C@@H](C(=O)N2CCOCC2)N(C)C(=O)[C@H](C(C)C)N(C)C(=O)C2(CCCC2)NC(=O)[C@@H]2CCCN2C(=O)[C@H](CCc2ccc(C(F)(F)F)c(Cl)c2)NC(=O)CN(C)C(=O)[C@H](CC2CCCCC2)N(C)C(=O)CN(C)C(=O)CN(C)C1=O` [Compound 1934] ([NMeL]I[Sar][Sar][NMeCha][Sar][hPhe(3-Cl-4-CF3)]P[Ac5c][NMeV][NMeD]-Morpholide; lactam N-11), the pIC50 was 9.00 in experiment [1] and 6.30 to 7.00 in experiment [2].

In the case of `CC[C@H](C)[C@@H]1NC(=O)[C@H](CC(C)C)N(C)C(=O)C[C@@H](C(=O)N2C3CCC2COC3)N(C)C(=O)[C@H](C2CCCCC2)N(C)C(=O)C2(CCC2)NC(=O)[C@@H]2CCCN2C(=O)[C@H](CCc2ccc(C(F)(F)F)c(Cl)c2)NC(=O)CN(C)C(=O)[C@H](CC2CCCCC2)N(C)C(=O)CN(C)C(=O)CN(C)C1=O` [Compound 1936] ([NMeL]I[Sar][Sar][NMeCha][Sar][hPhe(3-Cl-4-CF3)]P[Ac4c][NMeChg][NMeD]-{3Oxa8azabicyclo(3.2.1)octane}; lactam N-11), the pIC50 in experiment [1] is 9.17; in experiment [2], 7.30 to 7.70.

With `CC[C@H](C)[C@@H]1NC(=O)[C@H](CC(C)C)N(C)C(=O)C[C@@H](C(=O)N2C3CCC2COC3)N(C)C(=O)[C@H]([C@@H](C)CC)N(C)C(=O)C2(CCCC2)NC(=O)[C@@H]2CCCN2C(=O)[C@H](CCc2ccc(C(F)(F)F)c(Cl)c2)NC(=O)CN(C)C(=O)[C@H](CC2CCCCC2)N(C)C(=O)CN(C)C(=O)CN(C)C1=O` [Compound 1938] ([NMeL]I[Sar][Sar][NMeCha][Sar][hPhe(3-Cl-4-CF3)]P[Ac5c][NMeI][NMeD]-{3Oxa8azabicyclo(3.2.1)octane}; lactam N-11), the pIC50 in experiment [1] was 9.12; in experiment [2], 7.30 to 7.70.

Take `CC[C@H](C)[C@@H]1NC(=O)[C@H](CC(C)C)N(C)C(=O)C[C@@H](C(=O)N2CCCC2)N(C)C(=O)[C@H](C2CCCCC2)N(C)C(=O)C2(CCCC2)NC(=O)[C@@H]2CCCN2C(=O)[C@H](CCc2ccc(C(F)(F)F)cc2)NC(=O)CN(C)C(=O)[C@H](CC2CCCCC2)N(C)C(=O)CN(C)C(=O)CN(C)C1=O` [Compound 1939] ([NMeL]I[Sar][Sar][NMeCha][Sar][hPhe(4-CF3)]P[Ac5c][NMeChg][NMeD]-Pyrrolidide; lactam N-11): the values for the pIC50 in experiment [1] and in experiment [2] were 9.15 and 6.30 to 7.00, respectively.

As to `CC[C@H](C)[C@@H]1NC(=O)[C@H](CC(C)C)N(C)C(=O)C[C@@H](C(=O)N2C3CCC2COC3)N(C)C(=O)[C@H](C2CCCCC2)N(C)C(=O)C2(CCCC2)NC(=O)[C@@H]2CCCN2C(=O)[C@H](CCc2ccc(C(F)(F)F)cc2)NC(=O)CN(C)C(=O)[C@H](CC2CCCCC2)N(C)C(=O)CN(C)C(=O)CN(C)C1=O` [Compound 1940] ([NMeL]I[Sar][Sar][NMeCha][Sar][hPhe(4-CF3)]P[Ac5c][NMeChg][NMeD]-{3Oxa8azabicyclo(3.2.1)octane}; lactam N-11), the figures for the pIC50 in experiment [1] and in experiment [2] were 8.80 and 6.30 to 7.00, respectively.

With `CC[C@H](C)[C@@H]1NC(=O)[C@H](CC(C)C)N(C)C(=O)C[C@@H](C(=O)N2CCOCC2)N(C)C(=O)[C@H](C2CCCCC2)N(C)C(=O)C2(CCCC2)NC(=O)[C@@H]2CCCN2C(=O)[C@H](CCc2ccc(Cl)cc2)NC(=O)CN(C)C(=O)[C@H](CC2CCCCC2)N(C)C(=O)CN(C)C(=O)CN(C)C1=O` [Compound 1941] ([NMeL]I[Sar][Sar][NMeCha][Sar][hPhe(4-Cl)]P[Ac5c][NMeChg][NMeD]-Morpholide; lactam N-11), the pIC50 is 8.82 in experiment [1] and 7.00 to 7.30 in experiment [2].

Consider `CC[C@H](C)[C@@H]1NC(=O)[C@H](CC(C)C)N(C)C(=O)C[C@@H](C(=O)N2CCOCC2)N(C)C(=O)[C@H](C2CCCCC2)N(C)C(=O)C2(CCCC2)NC(=O)[C@@H]2CCCN2C(=O)[C@H](CCc2ccc(C(F)(F)F)cc2)NC(=O)CN(C)C(=O)[C@H](CC2CCCCC2)N(C)C(=O)CN(C)C(=O)CN(C)C1=O` [Compound 1947] ([NMeL]I[Sar][Sar][NMeCha][Sar][hPhe(4-CF3)]P[Ac5c][NMeChg][NMeD]-Morpholide; lactam N-11), for which the pIC50 in experiment [1] was 8.92; in experiment [2] it was 7.00 to 7.30.

Turning to `CC[C@H](C)[C@@H]1NC(=O)[C@H](CC(C)C)N(C)C(=O)C[C@@H](C(=O)N2CCOCC2)N(C)C(=O)[C@H](C2CCCCC2)N(C)C(=O)C2(CCCC2)NC(=O)[C@@H]2CCCN2C(=O)[C@H](CCc2ccc(C(F)(F)F)c(Cl)c2)NC(=O)CN(C)C(=O)[C@H](Cc2ccc(C(F)(F)F)cc2)N(C)C(=O)CN(C)C(=O)CN(C)C1=O` [Compound 1948] ([NMeL]I[Sar][Sar][NMePhe(4-CF3)][Sar][hPhe(3-Cl-4-CF3)]P[Ac5c][NMeChg][NMeD]-Morpholide; lactam N-11), the results for the pIC50 in experiment [1] and in experiment [2] were 9.27 and 7.30 to 7.70, respectively.

Regarding `CCCOC[C@H]1C(=O)N(C)CC(=O)N[C@@H](CCc2ccc(C(F)(F)F)c(Cl)c2)C(=O)N2CCC[C@H]2C(=O)NC2(CCCC2)C(=O)N(C)[C@@H](C2CCCCC2)C(=O)N(C)[C@H](C(=O)N2CCOCC2)CC(=O)N(C)[C@@H](CCC)C(=O)N[C@@H]([C@@H](C)CC)C(=O)N(C)CC(=O)N(C)CC(=O)N1C` [Compound 1949] ([NMeNva]I[Sar][Sar][NMeS](Propyl)[Sar][hPhe(3-Cl-4-CF3)]P[Ac5c][NMeChg][NMeD]-Morpholide; lactam N-11), the pIC50 was 9.22 in experiment [1] and 6.30 to 7.00 in experiment [2].

Consider `CC[C@H](C)[C@@H]1NC(=O)[C@H](CC(C)C)N(C)C(=O)C[C@@H](C(=O)N2C3CCC2COC3)N(C)C(=O)[C@H](C2CCCCC2)N(C)C(=O)C2(CCCC2)NC(=O)[C@@H]2CCCN2C(=O)[C@H](CCc2ccc(Cl)cc2)NC(=O)CN(C)C(=O)[C@H](CC2CCCCC2)N(C)C(=O)CN(C)C(=O)CN(C)C1=O` [Compound 1950] ([NMeL]I[Sar][Sar][NMeCha][Sar][hPhe(4-Cl)]P[Ac5c][NMeChg][NMeD]-{3Oxa8azabicyclo(3.2.1)octane}; lactam N-11), for which the results for the pIC50 in experiment [1] and in experiment [2] were 8.55 and 7.30 to 7.70, respectively.

Take `CC[C@H](C)[C@@H]1NC(=O)[C@H](CC(C)C)N(C)C(=O)C[C@@H](C(=O)N2C3CCC2COC3)N(C)C(=O)[C@H](C(C)C)N(C)C(=O)C2(CCCC2)NC(=O)[C@@H]2CCCN2C(=O)[C@H](CCc2ccc(C(F)(F)F)c(Cl)c2)NC(=O)CN(C)C(=O)[C@H](CC2CCCCC2)N(C)C(=O)CN(C)C(=O)CN(C)C1=O` [Compound 1954] ([NMeL]I[Sar][Sar][NMeCha][Sar][hPhe(3-Cl-4-CF3)]P[Ac5c][NMeV][NMeD]-{3Oxa8azabicyclo(3.2.1)octane}; lactam N-11): the values for the negative-log IC50 (pIC50) in experiment [1] and in experiment [2] were 8.64 and 6.30 to 7.00, respectively.

In general, pIC50 refers to −log10 of the IC50, conventionally taken in molar units.
